How the values were obtained:
[1] = tested on: adenoid cystic carcinomas of the salivary gland; conditions: despite increased expression of c-kit; cited from earlier work
ER+/HER2− metastatic BC = assay: Retrospective study of metastatic BC patients treated with CDK4/6 inhibitors, classified R or NR by change in sum of diameters of target tumors after 6 months, with overall survival; assay type: in vivo, human; conditions: for Patients within the NR group / Number of non-responders (NR): at least a 20% increase in the sum of diameters of target tumors after 6 months; for Patients within the NR group: 10 NR of 24 patients; for Number of non-responders (NR) / Number of responders (R): samples separated by inhibitor; for Number of responders (R): at least a 30% decrease in the sum of diameters of target tumors after 6 months of treatment
Excerpt: Here we describe a retrospective study analyzing plasma-based metabolites from a baseline (BL) sample and after 2-months (2M) of treatment of 24 women with ER+/HER2-− metastatic BC treated with CDK4/6 inhibitors, palbociclib or ribociclib.

CYP2A6 = target: T1, CYP2A6 (Homo sapiens, UniProt P11509); conditions: off-target effect; cited from earlier work
T1 sequence (P11509 1-494): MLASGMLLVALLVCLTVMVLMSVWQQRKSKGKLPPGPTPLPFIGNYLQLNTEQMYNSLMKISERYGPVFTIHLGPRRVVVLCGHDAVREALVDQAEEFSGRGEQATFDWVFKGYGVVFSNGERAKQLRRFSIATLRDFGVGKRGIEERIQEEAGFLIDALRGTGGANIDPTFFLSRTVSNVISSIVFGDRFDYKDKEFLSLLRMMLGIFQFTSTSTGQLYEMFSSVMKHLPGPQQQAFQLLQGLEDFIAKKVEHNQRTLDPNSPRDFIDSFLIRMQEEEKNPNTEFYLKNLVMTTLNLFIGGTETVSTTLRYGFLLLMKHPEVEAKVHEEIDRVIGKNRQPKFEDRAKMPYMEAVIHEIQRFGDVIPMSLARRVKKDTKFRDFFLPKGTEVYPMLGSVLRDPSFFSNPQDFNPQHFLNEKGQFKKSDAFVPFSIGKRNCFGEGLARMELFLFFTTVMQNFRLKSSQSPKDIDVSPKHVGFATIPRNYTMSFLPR

CYP2C19 = CYP2C19 (Homo sapiens, UniProt P33261); conditions: off-target effect; cited from earlier work
Chain of CYP2C19 (P33261 whole entry): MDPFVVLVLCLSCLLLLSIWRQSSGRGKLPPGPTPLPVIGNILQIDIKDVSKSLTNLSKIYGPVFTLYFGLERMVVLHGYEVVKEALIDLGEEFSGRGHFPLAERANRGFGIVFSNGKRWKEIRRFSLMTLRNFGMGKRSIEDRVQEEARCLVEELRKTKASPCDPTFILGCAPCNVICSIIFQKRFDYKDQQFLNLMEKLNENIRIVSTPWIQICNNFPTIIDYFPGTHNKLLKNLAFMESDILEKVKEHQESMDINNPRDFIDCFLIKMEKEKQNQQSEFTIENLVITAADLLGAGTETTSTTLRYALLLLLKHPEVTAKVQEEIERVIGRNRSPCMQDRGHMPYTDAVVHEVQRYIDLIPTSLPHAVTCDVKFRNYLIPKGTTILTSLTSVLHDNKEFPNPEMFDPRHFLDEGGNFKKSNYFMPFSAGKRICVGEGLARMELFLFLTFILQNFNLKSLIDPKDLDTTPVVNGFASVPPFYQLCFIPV

Structure (SMILES) | Effect on adenoid cystic carcinomas of the salivary gland [1] | Patients within the NR group (ER+/HER2− metastatic BC) | Number of non-responders (NR) (ER+/HER2− metastatic BC) | Number of responders (R) (ER+/HER2− metastatic BC) | Inhibition of CYP2A6 (CYP2A6) | Inhibition of CYP2C19 (CYP2C19)
Cc1ccc(NC(=O)c2ccc(CN3CCN(C)CC3)cc2)cc1Nc1nccc(-c2cccnc2)n1 [imatinib] | no effect |  |  |  |  | 
CC(=O)c1c(C)c2cnc(Nc3ccc(N4CCNCC4)cn3)nc2n(C2CCCC2)c1=O [palbociclib] |  | 3 patients | 3 | 7 |  | 
N#Cc1ccc(C(c2ccc(C#N)cc2)n2cncn2)cc1 [letrozole] |  |  |  |  | inhibits | inhibits
CN(C)C(=O)c1cc2cnc(Nc3ccc(N4CCNCC4)cn3)nc2n1C1CCCC1 [ribociclib] |  | 7 patients | 6 | 8 |  | 

— patent publication US11366102B2, “Spectographic metabolite-signature for identifying a subject's susceptibility to drugs” (Olaris, Inc., priority 2018, dated 2022)
